Laboratory results published in patent publication US20110098300A1, “Compounds Comprising A Cyclobutoxy Group” (UCB PHARMA, S.A., priority 2008, published 2011).

Row | SMILES | melting point
1 | O=C(c1ccc(O[C@H]2C[C@H](N3CCCCC3)C2)cc1)N1CCOCC1 [Compound 1, 4-{4-[(trans-3-piperidin-1-ylcyclobutyl)oxy]benzoyl}morpholine] | 135 to 136 °C
2 | O=C(c1ccc(O[C@H]2C[C@H](N3CCCCC3)C2)cc1)N1CCC(F)(F)CC1 [Compound 2, 4,4-difluoro-1-{4-[(trans-3-piperidin-1-ylcyclobutyl)oxy]benzoyl}piperidine] | 145 to 146 °C
3 | O=C(c1ccc(O[C@H]2C[C@H](N3CCCCC3)C2)cc1)N1CCCCC1 [Compound 3, 1-{trans-3-[4-(piperidin-1-ylcarbonyl)phenoxy]cyclobutyl}piperidine] | 101.1 to 102.2 °C
4 | CC(C)N1CCN(C(=O)c2ccc(O[C@H]3C[C@H](N4CCCCC4)C3)cc2)CC1 [Compound 4, 1-isopropyl-4-{4-[(trans-3-piperidin-1-ylcyclobutyl)oxy]benzoyl}piperazine] | 98.5 to 99 °C
5 | O=C(c1ccc(O[C@H]2C[C@H](N3CCCCC3)C2)cc1)N1CCC(O)CC1 [Compound 5, 1-{4-[(trans-3-piperidin-1-ylcyclobutyl)oxy]benzoyl}piperidin-4-ol] | 57.4 to 57.8 °C
6 | O=C(c1ccc(O[C@H]2C[C@H](N3CCCCC3)C2)cc1)N1CCS(=O)(=O)CC1 [Compound 8, 4-{4-[(trans-3-piperidin-1-ylcyclobutyl)oxy]benzoyl}thiomorpholine 1,1-dioxide] | 186.5 to 186.9 °C
7 | O=C(c1ccc(O[C@H]2C[C@H](N3CCCCC3)C2)cc1)N1CCC(F)(F)C1 [Compound 9, 1-(trans-3-{4-[(3,3-difluoropyrrolidin-1-yl)carbonyl]phenoxy}cyclobutyl)piperidine] | 115.2 to 115.8 °C
8 | CC(=O)N1CCN(C(=O)c2ccc(O[C@H]3C[C@H](N4CCCCC4)C3)cc2)CC1 [Compound 10, 1-acetyl-4-{4-[(trans-3-piperidin-1-ylcyclobutyl)oxy]benzoyl}piperazine] | 159.2 to 159.8 °C
9 | O=C(c1ccc(O[C@H]2C[C@H](N3CCCCC3)C2)cc1)N1CC(O)C1 [Compound 11, 1-{4-[(trans-3-piperidin-1-ylcyclobutyl)oxy]benzoyl}azetidin-3-ol] | 82.2 to 82.4 °C
10 | O=C(Nc1cnccc1Cl)c1ccc(O[C@H]2C[C@H](N3CCCCC3)C2)cc1 [Compound 12, N-(4-chloropyridin-3-yl)-4-[(trans-3-piperidin-1-ylcyclobutyl)oxy]benzamide] | 151.6 °C
11 | O=C(NCC(F)(F)F)c1ccc(O[C@H]2C[C@H](N3CCCCC3)C2)cc1 [Compound 13, 4-[(trans-3-piperidin-1-ylcyclobutyl)oxy]-N-(2,2,2-trifluoroethyl)benzamide] | 152.9 to 153.4 °C
